The series deals with HIF1A. Nature of the series: HeLa, 100 nM transfected, 24 h, mean of 3. Conditions: ASO.

Bases are written 5' to 3'; sugars and linkages follow in the same order, as letters with counts (s phosphorothioate, o phosphodiester; PS: all linkages phosphorothioate). C may stand for cytosine or 5-methylcytosine; the collection does not tell. l = locked nucleic acid (LNA); d = 2'-deoxy (DNA)

Sequence “TGGCAAGCATCCTGTA (sugars l2 d10 l1 d1 l2, PS)” yielded a caspase activation (% of PBS control) of 376.
Sequence “TGGCAAGCATCCTGTA (sugars ldlddddddddldddl, PS)” yielded a caspase activation (% of PBS control) of 160.
As for “ACTGCCTTCTTAC (sugars l1 d1 l1 d8 l2, PS)”, the caspase activation (% of PBS control) stood at 191.
For “GTTACTGCCTTCTTAC (sugars l1 d11 l1 d2 l1, PS)”, the caspase activation (% of PBS control) turned out to be 115.
Sequence “TGGCAAGCATCCTGTA (sugars l2 d1 l1 d9 l3, PS)” returned a caspase activation (% of PBS control) of 520.
In turn, “GTTACTGCCTTCTTAC (sugars llddlddddddllddl, PS)” returned a caspase activation (% of PBS control) of 231.
With TGGCAAGCATCCT (sugars l3 d8 l2, PS), the caspase activation (% of PBS control) came to 217.
The result for “GTTACTGCCTTCTTAC (sugars l2 d9 l1 d2 l2, PS)” reads 120; that for TACTGCCTTCTTA (sugars l3 d7 l3, PS), 489.
In turn, “GTTACTGCCTTCTTAC (sugars lddldddddddldlll, PS)” gave a caspase activation (% of PBS control) of 154.
Regarding “GTTACTGCCTTCTTAC (sugars lldllddddddldldl, PS)”, the caspase activation (% of PBS control) is 294.
With “TGGCAAGCATCCTGTA (sugars l1 d2 l1 d8 l4, PS)”, the caspase activation (% of PBS control) is 398.
The result for “GTTACTGCCTTCTTAC (sugars llldlddddddllddl, PS)” reads 308; that for “GTTACTGCCTTCTTAC (sugars lddllddddddldddl, PS)”, 188; that for “GTTACTGCCTTCTTAC (sugars ldddlddddddllldl, PS)”, 261.
In the case of “TGGCAAGCATCCTGTA (sugars l1 d11 l1 d1 l2, PS)”, the caspase activation (% of PBS control) came out at 315.
With “GTTACTGCCTTCTTAC (sugars lldlddddddddldll, PS)”, the caspase activation (% of PBS control) is 139.

The values are drawn from the OligoGym collection.
